Laboratory results: PMC8232704, “Hydrophobic Tagging-Mediated Degradation of Transcription Coactivator SRC-1” (International Journal of Molecular Sciences, 2021)
Bridge positions count the residues as written; N and C are the ends. Square brackets hold non-standard residues; d marks the D form. Peptide text beside a SMILES is read from it. N(1-adamantyl)Gly = O=C(O)CNC12CC3CC(CC(C3)C1)C2; Cha = N[C@@H](CC1CCCCC1)C(=O)O; S5 = C=CCCC[C@](C)(N)C(=O)O; PEG3 = NCCOCCOCCOCCC(=O)O

Assays:
[1] = test system: HEK293T cells; experiment: Cell viability assay (Cyto X); type: cell-based, human; conditions: 48 h, Opti-MEM
Description: (§1) MDA-MB-231 (1 × 10^4 cells/well) and HEK293T (1 × 10^4 cells/well) cells were seeded into a 96-well plate (Corning, 3595) and incubated at 37 °C with 5% CO2 for 24 h. These cells were then washed twice with DPBS and treated with 1% DMSO or various concentrations of YL2-HyT6 for 48 h in Opti-MEM medium. The remaining cells were then used to measure cell viability using a Cyto X cell viability assay kit (LPS solution, Daejeon, Korea, CYT3000) following the manufacturer’s instruction.

[2] = test system: MDA-MB-231 cells; experiment: Cell viability assay (Cyto X); type: cell-based, human; conditions: 48 h, Opti-MEM
Description: as §1

[3] = Serum stability in FBS; type: in vitro ADME, bovine; conditions: 40 μM in DPBS containing 25% FBS, 37 °C, 0–24 h, LC–MS, normalized to control without FBS
Description: YL2-HyT6 and ND1-YL2 solutions (200 μL, 40 μM in DPBS containing 25% FBS) were incubated at 37 °C for different time periods (0–24 h). For the precipitation of serum proteins, each sample was treated with 100 μL of 15% TFA and incubated at 4 °C overnight. Final samples were then centrifuged at 15,000 rpm for 10 min and filtrated for analysis using LC–MS with a C18 column. The ratio of the remaining compound (%) was calculated by integrating the chromatographic peak of a compound and normalized in comparison with a control sample (incubated without FBS).

[4] = test system: CSF-1 mRNA in MDA-MB-231 cells; experiment: RT-qPCR of CSF-1 mRNA; type: cell-based, human; conditions: 18 h, RT-qPCR normalized to 18S
Description: Quantitative real-time PCR was performed for CSF-1, E-cadherin, and 18S (as a reference gene) mRNAs. MDA-MB-231 cells (1.2 × 10^5 cells/well) were seeded into a 12-well plate and incubated at 37 °C with 5% CO2 for 24 h. These cells were treated with indicated compounds (YL2, adamantane, ND1-YL2, or YL2-HyT6) for 18 h in Opti-MEM medium. After cells were washed with cold DPBS, mRNAs were isolated from these cells using an AccuPrep Universal RNA extraction kit (Bioneer, Daejeon, Korea). Then 1.5 µg of mRNAs were reverse-transcribed using AccuPower RocketScript Cycle RT PreMix (Bioneer) to generate complementary DNAs. RT-qPCR for CSF-1, E-cadherin, and 18S was performed with a StepOnePlus Real-Time PCR System (Applied Biosystems, Waltham, MA, USA) and SYBR Green mix (Applied Biosystems) according to the manufacturer’s instructions with gene-specific primers (Table 1).

[5] = biological target: T1, PAS-B domain of human SRC-1 (residues 257–385) (Homo sapiens, UniProt Q15788); experiment: Competitive fluorescence polarization (FP) assay, fluorescein-labeled STAT-6 peptide binding to SRC-1; conditions: 100 nM fluorescein-labeled 15-mer STAT-6 peptide, 1 μM PAS-B domain of SRC-1, HEPES pH 7.4, SD from three independent experiments
T1 construct: PAS-B domain of human SRC-1 (residues 257–385); His6; made in house; host or cells: Rosetta E. coli
T1 sequence (Q15788 257-385): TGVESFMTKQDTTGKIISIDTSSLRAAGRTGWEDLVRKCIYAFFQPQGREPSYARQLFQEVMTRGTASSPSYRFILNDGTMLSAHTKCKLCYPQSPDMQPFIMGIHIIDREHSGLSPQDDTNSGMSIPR
Description: A plasmid expressing the PAS-B domain of human SRC-1 (residues 257–385) tagged with His6 was provided by John A. Robinson (University of Zürich at Switzerland). It was transformed into Rosetta E. coli cells. SRC-1 protein purification was performed as described previously.
After incubating 100 nM of fluorescein-labeled 15-mer STAT-6 peptide with 1 μM of PAS-B domain of SRC-1 in a binding buffer (50 mM HEPES pH 7.4, 150 mM NaCl, 3.4 mM EDTA, and 0.01% Tween 20) in a black Greiner 384-well plate for 30 min, indicated concentrations of YL2 and YL2-HyT1 through YL2-HyT6 were added to each well. After incubation for another 1.5 h, fluorescence polarization was measured on a Tecan Infinite F200 Pro microplate reader (excitation wavelength: 485 nm, emission wavelength: 535 nm). The Ki values of the compounds in the competition assay were determined using the following equation [43]. (1) Ki=[I]50/[L]50/KD+[P]0/KD+1 where [I]50 is the concentration of the free inhibitor at 50% inhibition, KD is the dissociation constant of the protein–ligand complex, [L]50 is the concentration of the free labeled ligand at 50% inhibition, and [P]0 is the concentration of the free protein at 0% inhibition.

Ki [5]: 237 nM
SMILES: CC(C)C[C@H](NC(=O)CCOCCOCCOCCNC(=O)CNC12CC3CC(CC(C3)C1)C2)C(=O)N[C@@H](CC(C)C)C(=O)N1CCC[C@H]1C(=O)N1CCC[C@H]1C(=O)N[C@H](C(=O)N[C@@H](CCC(=O)O)C(=O)N[C@@H](CCC(N)=O)C(=O)N[C@@H](CC(=O)O)C(=O)N[C@@H](CC(C)C)C(=O)N[C@@]1(C)CCC/C=C\CCC[C@@](C)(C(=O)N[C@@H](Cc2ccc(O)cc2)C(N)=O)NC(=O)[C@H](CC2CCCCC2)NC(=O)[C@H](CC(C)C)NC(=O)[C@H](CCCCN)NC1=O)[C@@H](C)O [YL2-HyT6] (H-[N(1-adamantyl)Gly][PEG3]LLPPTEQDL[S5]KL[Cha][S5]Y-NH2; staple (Z) 12-16; C-terminus assumed)
Cell viability [1]: little effect on cell viability
Cell viability [2]: little effect on cell viability
Serum stability (remaining compound) [3]: improved stability relative to the peptide-based PROTAC (ND1-YL2)
CSF-1 mRNA expression level [4]: dose-dependent decrease in CSF-1
